{"source": "patent US20050037446A1", "about": "“Agents that recognize src when phosphorylated at serine 17” (priority 2001, published 2005)", "key": {"Src++ and SYF cells": {"test_system": "Src++ and SYF cells", "assay": "MTT assay for cell proliferation", "format": "cell-based, mouse", "details": "for Stimulation of cell growth: SYF cells, 48 hours", "protocol": "To determine the effect of Src on cell proliferation, the following protocol was used. Src^++ and SYF cells were serum-starved overnight and plated onto 96 well plates. Cells were then treated with PDGF, EGF, Forskolin, H89, and/or PD98059 (PD, 10 μM, Cal Biochem). Cells were analyzed 48 hours later by MTT assay and data quantified (n=4±S.E.). The MTT assay for cell proliferation was conducted as follows (Schmitt and Stork, Mol. Cell. Biol. 21:3671-83, 2001). Briefly, 2.5 hours prior to lysis, 20 μl of sterile […] MTT (Sigma) was added to the cells and allowed to incubate at 37° C. At the appropriate time, cells were lysed and proteins solubilized in 50% volume/volume H2O and N,N,-dimethylformamide containing 20% SDS, 0.5% of 80% acetic acid, and 0.4% 1M HCL Plates were read using a microplate reader and presented as the difference between optical densities at […].\nTo quantitate cell proliferation, cells were analyzed 48 hours later by MTT assay (see EXAMPLE 3) and data was quantified (n=4±S.E.). […] Expression of Flag-Src in SYF cells restored Forskolin's ability to inhibit PDGF- and EGF-mediated cell growth."}, "[1]": {"test_system": "purified catalytic subunit of PKA", "assay": "PKA kinase assay on membrane-spotted Src peptides, phospho-PKA substrate antibody", "format": "biochemical", "details": "12.5 nM PKA catalytic subunit, 30° C., 30 minutes", "description": "A peptide identical to amino acids 9-25 within the N-terminus of wild-type Src (WT) (KDASQRRRSLEPAENVH; SEQ ID NO: 12), which contains the potential PKA phosphorylation site (underlined), was generated using an Auto-Spot Robot ASP 222 (ABiMED, Langenfeld, Germany) and spotted onto a nitrocellulose membrane. Control peptides with serines 12 and/or 17 replaced by alanine (S12A, SEQ ID NO: 13; S17A, SEQ ID NO: 14; and S12AS17A, SEQ ID NO: 15), serine 17 replaced by aspartate (S17D, SEQ ID NO: 16), and arginines at 14-16 replaced by alanine (R14A, SEQ ID NO: 17; • R15A, SEQ ID NO: 18; R16A, SEQ ID NO: 19), as well as peptides designed to both a scrambled (SEQ ID NO: 20) and an unrelated (FLAG) sequence (SEQ ID NO: 21), were also generated and spotted onto the membrane.\nUsing a method previously described (Tegge et al., Biochen. 34:10569-77, 1995), the membranes were pre-incubated at room temperature (RT) overnight (ON) in buffer containing 20 mM Hepes, pH 7.4, 100 mM NaCl, 2 mM MgCl2, 1 mM EDTA, 1 mM DTI, and 0.2 mg/ml BSA. Membranes were then blocked at 30° C. for one hour in buffer containing 20 mM Hepes, pH 7.4, 100 mM NaCl, 2 mM MgCl2, 1 mM EDTA, 1 mM DTT, and 1 mg/ml BSA and 30 μM cold ATP. […] The membranes were then blocked, probed, and analyzed using chemiluminescence according the manufacturers guidelines for the phospho-PKA substrate antibody. […]"}, "Src": {"test_system": "Src", "assay": "Src autophosphorylation at tyrosine 416 (Western blot)", "format": "cell-based", "details": "SYF cells", "protocol": "To examine the mechanism of cAMP regulation of Src, Src kinase activity was assayed in vivo by monitoring autophosphorylation of Src at tyrosine 416 (Tyr416) using previously disclosed methods (Brown and Cooper, Biochim. Biophys. Acta 1287:121-49, 1996; Martin, Nat. Rev. Mol. Cell. Biol. 2:467-75,2001).\n[…] Cell lysates were prepared, and Src immunopreciptiated and analyzed by Western blot for either tyrosine phosphorylation at site 416 (p416Src) using phospho-Src (Tyr416) antibodies (Cell Signaling Technology), Flag-Src, or analyzed by Western blot for either PKA phosphorylation or Src (using Src antibodies, Santa Cruz Biotechnology Inc.), using the methods described above. Alternatively, Flag-Src was immunoprecipitated from the cell lysates and analyzed by Western blot for either Cb1 or Flag-Src.\nThe activation of wild type Src by Forskolin was confirmed by observing autophosphorylation of Src at Tyr416 and using an in vitro kinase assay. To measure autophosphorylation of Src at Tyr416, SYF cells were transfected with either Flag-Src (WT) or Flag-SrcS17A and treated with Forskolin and PDGF or EGF, as described above. Flag-Src was immunoprecipitated from cell lysates and analyzed by Western blot for either phosphorylation of Src on Tyr416 or the presence of Flag-Src. […]"}, "Rap1": {"test_system": "Rap1", "assay": "Rap1 activation affinity assay (GST-RalGDS pull-down), NIH3T3 cells", "format": "cell-based", "details": "NIH3T3 cells, 10 μM, five minutes", "protocol": "NIH3T3 cells (American Type Culture Collection, ATCC, Manassas, Va.) were cultured in Dulbecco-Modified Eagle Medium (DMEM) plus 10% fetal calf serum, penicillin/streptomycin, and L-glutamine at 37° C. in 5% CO2. Cells were maintained in serum-free DMEM for 16 hours at 37° C. in 5% CO2 prior to treatment. NIH3T3 cells were trasfected with Flag-Rap1 (see Vossler et al., Cell, 89:73-82, 1997) or stimulated with Forskolin (10 μM, Cal Biochem, Riverside, Calif.) for five minutes. Forskolin treated cells received either a pretreatment or post-treatment with 10 μM N-[2(Bromocimamylamino) ethyl]-5-isoquinolinesulfonamide (H89) (Cal Biochem, Riverside, Calif.) for 20 minutes.\nCells were co-transfected with Flag-Rap1 at seventy to eighty percent confluency with the cDNA using a Lipofectamine 2000 kit (Gibco BRL, Rockville, Md.) according to the manufacturer's instructions. The control vector, pcDNA3 (Invitrogen Corp.), was included in each set of transfections to assure that each plate received the same amount of DNA. Following transfection, cells were allowed to recover in serum containing media for 24 hours. Cells were then starved overnight in serum-free DMEM before treatment and lysis.\nAfter treatment, cells were lysed in ice-cold lysis buffer (50 mM Tris-HCL (pH 8.0), 10% glycerol, 1% nonidet P40, 200 mM NaCl, 2.5 mM MgCl2, 1 mM phenylmethylsulfonyl fluoride, 1 μM leupeptin, 10 μln soybean trypsin inhibitor, 10 mM NaF, 0.1 μM aprotinin, and 1 mM NaVO4). Nuclei and cytoskeleton were removed from equivalent amounts of lysate by centrifugation at 5,000 rpm for five minutes. The supernatant was centrifuged at 100,000×g for one hour at 4° C. and, the resultant membrane was resuspended in cold lysis buffer. Aliquots of the membrane fraction were analyzed for the presence of C3G by Western blotting. The cytosolic or membrane fractions of treated or untreated cells were mixed with equivalent amounts of lysates from untreated Flag-Rap1 transfected cells. The mixture was incubated at 37° C. for five minutes and equal amounts of lysate were analyzed using the Rap1 activation assay to monitor Flag-Rap 1 activation by Gst-RalGDS.\nThe Rap1 activation affinity assay was performed as follows. A GST fusion protein of the Rap1-binding domain of RalGDS (GST-RalGDS, Dr. Bos, Utrecht University, The Netherlands) was expressed in E. coli following induction by isopropyl-1thio-β-D-galactopyranoside. Active Rap1 was isolated as previously described (Franke et al., EMBO J. 16:252-9, 1997). Briefly, equivalent amounts of supernatants (500 μg) were incubated with GST-RalGDS-Rap1 binding domain coupled to glutathione beads. Following a one hour incubation at 4° C., beads were pelleted and rinsed threes times with ice-cold lysis buffer. […] Proteins were detected using enhanced chemiluminescence."}, "[2]": {"test_system": "T1, peptide identical to amino acids 9-25 within the N-terminus of wild-type Src (WT)", "T1 sequence": "KDASQRRRSLEPAENVH"}, "[3]": {"test_system": "T2, Src 9-25 control peptide S12A", "T2 sequence": "KDAAQRRRSLEPAENVH"}}, "data": [{"molecule": "COc1cccc(-c2cc(=O)c3ccccc3o2)c1N", "note": "[PD98059]", "values": [{"measurement": "PDGF stimulation of proliferation in presence of MEK inhibitor", "setting": "Src++ and SYF cells; Src++ and SYF cells, 10 μM", "result": "dependent on ERK signaling"}, {"measurement": "Effect on PDGF- and EGF-stimulated SYF cell growth", "setting": "Src++ and SYF cells; transfected SYF cells, pretreatment", "result": "blocked"}]}, {"molecule": "KDASQRRRSLEPAENVH (listed as Homo sapiens) [WT, peptide identical to amino acids 9-25 of wild-type Src]", "values": [{"measurement": "Recognition by phospho-PKA substrate antibody after PKA kinase assay", "setting": "[1]", "result": "recognized"}]}, {"molecule": "S12A: control Src 9-25 peptide with serine 12 replaced by alanine (KDAAQRRRSLEPAENVH)", "values": [{"measurement": "Recognition by phospho-PKA substrate antibody after PKA kinase assay", "setting": "[1]", "result": "recognized"}]}, {"molecule": "epidermal growth factor [EGF]", "values": [{"measurement": "Activation of wild type Src and SrcS17A by growth factor", "setting": "Src", "result": "activated both wild type Src and SrcS17A equally"}, {"measurement": "Stimulation of cell growth", "setting": "Src++ and SYF cells", "result": "stimulated SYF cell growth"}]}, {"molecule": "platelet-derived growth factor [PDGF]", "values": [{"measurement": "Activation of wild type Src and SrcS17A by growth factor", "setting": "Src", "result": "activated both wild type Src and SrcS17A equally"}, {"measurement": "Stimulation of cell growth", "setting": "Src++ and SYF cells", "result": "stimulated SYF cell growth"}]}, {"molecule": "prostaglandin E [PGE1]", "values": [{"measurement": "Activation of endogenous Rap1", "setting": "Rap1", "result": "activated Rap1"}]}, {"molecule": "purified catalytic subunit of PKA", "values": [{"measurement": "phosphorylation of spotted peptide, detected with the phospho-PKA substrate antibody", "setting": "[2]", "result": "Only the peptides containing Ser17 and adjacent arginines (WT and S12A) were recognized by the antibody, consistent with the consensus PKA recognition motif."}, {"measurement": "phosphorylation of spotted peptide, detected with the phospho-PKA substrate antibody", "setting": "[3]", "result": "Only the peptides containing Ser17 and adjacent arginines (WT and S12A) were recognized by the antibody, consistent with the consensus PKA recognition motif."}]}]}
